The target of series [1] is T1, human serotonin transporter (Homo sapiens, UniProt P31645).
T1 construct: purchased PerkinElmer; host or cells: HEK-293
In words: Serotonin transporter radioligand binding ([3H]-imipramine, HEK-293 membranes). As to the method:
(§1) Each compound was tested in 6 concentrations from 10–5 to 10–10 M (final concentration).
(§2) All assays were carried out in duplicates.

For series [2], the target named is T2, human 5-HT1A receptor (Homo sapiens, UniProt P08908).
T2 construct: purchased PerkinElmer; host or cells: CHO-K1
T2 sequence (P08908 1-422): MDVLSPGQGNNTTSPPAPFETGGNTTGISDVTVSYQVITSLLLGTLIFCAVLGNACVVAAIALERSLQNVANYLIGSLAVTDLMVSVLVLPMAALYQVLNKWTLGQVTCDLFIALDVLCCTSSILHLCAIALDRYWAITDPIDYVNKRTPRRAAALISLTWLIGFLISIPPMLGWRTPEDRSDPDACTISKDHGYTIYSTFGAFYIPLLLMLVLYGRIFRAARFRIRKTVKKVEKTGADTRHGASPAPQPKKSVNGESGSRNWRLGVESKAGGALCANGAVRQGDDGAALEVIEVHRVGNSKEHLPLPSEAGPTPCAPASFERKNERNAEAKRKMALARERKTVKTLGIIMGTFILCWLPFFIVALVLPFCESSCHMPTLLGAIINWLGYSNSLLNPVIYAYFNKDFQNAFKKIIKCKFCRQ
In words: 5-HT1A receptor radioligand binding ([3H]-8-OH-DPAT, CHO-K1 membranes). Particulars: displacement of [3H]-8-OH-DPAT, mean ± SEM of three experiments, NC = not converged. As for the experimental part:
as §1, §2
In general terms: Loss of bound radioactivity is the signal in a displacement assay; it reports binding, not function.

The target of series [3] is human norepinephrine transporter (Homo sapiens, UniProt P23975). In words: NET binding assay ([3H]-nisoxetine, MDCK membranes). Particulars: at 1 µM.
human norepinephrine transporter, sequence (P23975 whole entry): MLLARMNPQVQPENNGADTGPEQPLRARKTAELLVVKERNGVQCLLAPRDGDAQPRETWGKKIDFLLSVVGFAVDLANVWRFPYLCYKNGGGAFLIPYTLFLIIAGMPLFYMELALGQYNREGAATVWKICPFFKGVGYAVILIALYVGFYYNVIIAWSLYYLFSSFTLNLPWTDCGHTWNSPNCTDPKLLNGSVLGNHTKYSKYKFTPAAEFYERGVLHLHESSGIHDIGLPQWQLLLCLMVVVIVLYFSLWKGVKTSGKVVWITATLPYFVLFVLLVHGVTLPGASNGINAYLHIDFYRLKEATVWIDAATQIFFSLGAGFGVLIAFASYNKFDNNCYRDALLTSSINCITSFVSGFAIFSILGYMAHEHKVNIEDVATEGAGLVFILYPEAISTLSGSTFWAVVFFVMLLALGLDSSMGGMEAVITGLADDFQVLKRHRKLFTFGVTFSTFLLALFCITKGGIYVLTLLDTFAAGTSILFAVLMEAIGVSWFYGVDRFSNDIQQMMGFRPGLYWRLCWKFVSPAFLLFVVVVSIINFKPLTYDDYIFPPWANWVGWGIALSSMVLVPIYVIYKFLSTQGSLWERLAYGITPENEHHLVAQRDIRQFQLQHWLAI
Description: We performed radioligand binding assays using membranes from CHO-K1 cells stably transfected with human DAT and membranes from MDCK cells stably transfected with human NET. This was accomplished by assessing the displacement of [^3H]-WIN35,428 and [^3H]-nisoxetine from cloned human DAT and NET, respectively.
(§3) Ten-micromolar stock solutions of tested compounds were prepared in DMSO. […] Each compound was tested in a screening assay at final concentrations of 10 µM and 1 µM. Results were expressed as percent inhibition of radioligand binding. Reference compounds were tested in 8 concentrations from 10^−5 to 10^−12 M (final concentration).
Radioligand binding was performed using membranes from MDCK cells stably transfected with the human norepinephrine transporter (PerkinElmer, Waltham, MA, USA). All assays were carried out in duplicates. Measures of 50 µL of working solution of the tested compounds, 50 µL of [^3H]-nisoxetine (final concentration 4 nM) and 150 µL of diluted membranes (3 µg protein per well) prepared in assay buffer (50 mM Tris-HCl, pH 7.4, 120 mM NaCl; 5 mM KCl) were transferred to a polypropylene 96-well microplate using the 96-well pipetting station Rainin Liquidator (MettlerToledo, Beverly, MA, USA). […] The microplate was covered with sealing tape, mixed and incubated for 60 min at 4 °C. The reaction was terminated by rapid filtration through GF/C filter mate pre-soaked with 0.5% polyethyleneimine for 30 min. Ten rapid washes with 200 µL of 50 mM Tris buffer (4 °C, pH 7.4) were performed using the automated harvester system Harvester-96 MACH III FM (Tomtec, Hamden, CT, USA). […] Radioactivity was counted using a MicroBeta2 scintillation counter (PerkinElmer, Turku, Finland). Data were fitted to a one-site curve-fitting equation with Prism 5 (GraphPad Software), and Ki values were estimated using the Cheng–Prusoff equation.
Series [4] addresses human dopamine transporter (Homo sapiens, UniProt Q01959). In words: DAT binding assay ([3H]-WIN 35,428, CHO-K1 membranes). Particulars: for Selectivity Ratio hDAT/hSERT: ratio of Ki values.
Description: as §3
Radioligand binding was performed using membranes from CHO-K1 cells stably transfected with the human dopamine transporter (PerkinElmer, Waltham, MA, USA). All assays were carried out in duplicates. […] The microplate was covered with sealing tape, mixed and incubated for 120 min at 4 °C. The reaction was terminated by rapid filtration through GF/C filter mate pre-soaked with 0.5% polyethyleneimine for 30 min. Ten rapid washes with 200 µL of 50 mM Tris buffer (4 °C, pH 7.4) were performed using the automated harvester system Harvester-96 MACH III FM (Tomtec, Hamden, CT, USA). […] Radioactivity was counted using a MicroBeta2 scintillation counter (PerkinElmer, Turku, Finland). Data were fitted to a one-site curve-fitting equation with Prism 5 (GraphPad Software), and Ki values were estimated using the Cheng–Prusoff equation.
Another series concerns the target α1-adrenoceptor. In words: ADRA1 receptor binding assay ([3H]-prazosin, rat cortex). Particulars: read-out: Ki ± SEM α1.
For series [5], the target named is T2, human 5-HT1A receptor. Particulars: previously described 1H-indole analogues; read-out: Ki ± SEM 5-HT1A; cited from earlier work.
In series [6] the target is T1, human serotonin transporter. Particulars: previously described 1H-indole analogues; read-out: Ki ± SEM SERT; cited from earlier work.
The mark [7] stands for this setting: displacement of [3H]-imipramine, HEK-293 membranes, mean ± SEM of three experiments, read-out: Ki ± SEM SERT.

Where a name gives a salt, the structure may show the parent alone. Read-outs that look alike come from different tables or passages of the source. Marks after values point to notes of the source that are not given here.

For orientation: melting point means the temperature, or range, at which the solid turns liquid. What is called Ki is a dissociation constant, usually derived from enzyme kinetics or from competition with a known ligand.

human dopamine transporter, sequence (Q01959 whole entry): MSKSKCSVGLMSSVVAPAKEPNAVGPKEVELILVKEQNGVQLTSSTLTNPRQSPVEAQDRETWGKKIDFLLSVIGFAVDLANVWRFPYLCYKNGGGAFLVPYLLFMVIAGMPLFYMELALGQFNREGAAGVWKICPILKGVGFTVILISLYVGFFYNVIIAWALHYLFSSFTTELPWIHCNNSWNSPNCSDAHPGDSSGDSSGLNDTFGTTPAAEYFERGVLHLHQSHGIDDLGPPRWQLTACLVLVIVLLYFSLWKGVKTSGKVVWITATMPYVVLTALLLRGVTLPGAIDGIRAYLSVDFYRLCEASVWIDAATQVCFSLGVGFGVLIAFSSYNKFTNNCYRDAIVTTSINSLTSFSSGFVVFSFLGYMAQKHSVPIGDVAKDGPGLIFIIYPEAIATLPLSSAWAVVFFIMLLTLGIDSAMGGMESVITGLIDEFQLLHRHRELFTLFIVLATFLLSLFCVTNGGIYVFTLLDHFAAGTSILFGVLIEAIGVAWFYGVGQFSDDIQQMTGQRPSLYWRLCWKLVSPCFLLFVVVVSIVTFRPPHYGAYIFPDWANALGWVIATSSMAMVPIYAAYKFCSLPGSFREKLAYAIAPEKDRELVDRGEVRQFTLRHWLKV
T1 sequence (P31645 whole entry): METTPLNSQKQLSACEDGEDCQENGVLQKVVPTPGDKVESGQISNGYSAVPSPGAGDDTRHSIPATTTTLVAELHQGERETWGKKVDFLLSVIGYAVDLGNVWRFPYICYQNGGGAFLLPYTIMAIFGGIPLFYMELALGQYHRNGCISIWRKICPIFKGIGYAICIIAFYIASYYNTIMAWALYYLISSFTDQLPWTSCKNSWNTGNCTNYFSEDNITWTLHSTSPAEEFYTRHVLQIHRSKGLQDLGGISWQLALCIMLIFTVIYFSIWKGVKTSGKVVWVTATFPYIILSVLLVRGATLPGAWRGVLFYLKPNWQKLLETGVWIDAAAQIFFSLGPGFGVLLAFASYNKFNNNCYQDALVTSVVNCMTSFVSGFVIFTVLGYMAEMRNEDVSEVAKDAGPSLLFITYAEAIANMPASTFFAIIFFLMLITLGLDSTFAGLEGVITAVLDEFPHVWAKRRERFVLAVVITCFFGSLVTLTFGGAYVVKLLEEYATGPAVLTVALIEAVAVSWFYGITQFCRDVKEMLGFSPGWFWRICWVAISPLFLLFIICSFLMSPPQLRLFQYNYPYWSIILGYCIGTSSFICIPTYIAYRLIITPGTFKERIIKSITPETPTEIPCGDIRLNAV

Regarding `O=C1CC(c2c[nH]c3ccccc23)C(=O)N1CCCCN1CC=C(c2c[nH]c3ncccc23)CC1` (stereo not drawn) (as salt: hydrochloride) [Compound 4, 1-(4-(4-(1H-Pyrrolo[2,3-b]pyridin-3-yl)-3,6-dihydropyridin-1(2H)-yl)butyl)-3-(1H-indol-3-yl)pyrrolidine-2,5-dione], the melting point lay in the range of 172 to 177 °C.

`O=C1CC(c2c[nH]c3ccccc23)C(=O)N1CCCN1CC=C(c2c[nH]c3ncccc23)CC1` (stereo not drawn) (as salt: hydrochloride) [Compound 5, 1-(3-(4-(1H-Pyrrolo[2,3-b]pyridin-3-yl)-3,6-dihydropyridin-1(2H)-yl)propyl)-3-(1H-indol-3-yl)pyrrolidine-2,5-dione]: the melting point is 97 to 102 °C.

Regarding `O=C1CC(c2c[nH]c3ccccc23)C(=O)N1CCN1CC=C(c2c[nH]c3ncccc23)CC1` (stereo not drawn) (as salt: hydrochloride) [Compound 6, 1-(2-(4-(1H-Pyrrolo[2,3-b]pyridin-3-yl)-3,6-dihydropyridin-1(2H)-yl)ethyl)-3-(1H-indol-3-yl)pyrrolidine-2,5-dione], the melting point was in the range of 233 to 235 °C.

Turning to `COc1ccc2[nH]cc(C3CC(=O)N(CCCCN4CC=C(c5c[nH]c6ncccc56)CC4)C3=O)c2c1` (stereo not drawn) (as salt: hydrochloride) [Compound 7, 1-(4-(4-(1H-Pyrrolo[2,3-b]pyridin-3-yl)-3,6-dihydropyridin-1(2H)-yl)butyl)-3-(5-methoxy-1H-indol-3-yl)pyrrolidine-2,5-dione], the melting point fell in the range of 140 to 144 °C.

For `COc1ccc2[nH]cc(C3CC(=O)N(CCCN4CC=C(c5c[nH]c6ncccc56)CC4)C3=O)c2c1` (stereo not drawn) (as salt: hydrochloride) [Compound 8, 1-(3-(4-(1H-Pyrrolo[2,3-b]pyridin-3-yl)-3,6-dihydropyridin-1(2H)-yl)propyl)-3-(5-methoxy-1H-indol-3-yl)pyrrolidine-2,5-dione], the melting point lay within 111 to 115 °C.

`COc1ccc2[nH]cc(C3CC(=O)N(CCN4CC=C(c5c[nH]c6ncccc56)CC4)C3=O)c2c1` (stereo not drawn) (as salt: hydrochloride) [Compound 9, 1-(2-(4-(1H-Pyrrolo[2,3-b]pyridin-3-yl)-3,6-dihydropyridin-1(2H)-yl)ethyl)-3-(5-methoxy-1H-indol-3-yl)pyrrolidine-2,5-dione] gave a melting point of 129 to 132 °C.

`O=C1CC(c2c[nH]c3ccc(F)cc23)C(=O)N1CCCCN1CC=C(c2c[nH]c3ncccc23)CC1` (stereo not drawn) (as salt: hydrochloride) [Compound 10, 1-(4-(4-(1H-Pyrrolo[2,3-b]pyridin-3-yl)-3,6-dihydropyridin-1(2H)-yl)butyl)-3-(5-fluoro-1H-indol-3-yl)pyrrolidine-2,5-dione] came in with a melting point of 98 to 102 °C.

`O=C1CC(c2c[nH]c3ccc(F)cc23)C(=O)N1CCCN1CC=C(c2c[nH]c3ncccc23)CC1` (stereo not drawn) (as salt: hydrochloride) [Compound 11, 1-(3-(4-(1H-Pyrrolo[2,3-b]pyridin-3-yl)-3,6-dihydropyridin-1(2H)-yl)propyl)-3-(5-fluoro-1H-indol-3-yl)pyrrolidine-2,5-dione] had a melting point of 147 to 150 °C.

`O=C1CC(c2c[nH]c3ccc(F)cc23)C(=O)N1CCN1CC=C(c2c[nH]c3ncccc23)CC1` (stereo not drawn) (as salt: hydrochloride) [Compound 12, 1-(2-(4-(1H-Pyrrolo[2,3-b]pyridin-3-yl)-3,6-dihydropyridin-1(2H)-yl)ethyl)-3-(5-fluoro-1H-indol-3-yl)pyrrolidine-2,5-dione] gave a melting point of 250 to 252 °C.

In the case of `O=C1CC(c2c[nH]c3ccccc23)C(=O)N1CCCN1CC=C(c2c[nH]c3ncccc23)CC1` (stereo not drawn) [Compound 5, 1-(3-(4-(1H-Pyrrolo[2,3-b]pyridin-3-yl)-3,6-dihydropyridin-1(2H)-yl)propyl)-3-(1H-indol-3-yl)pyrrolidine-2,5-dione], the inhibition constant (Ki) in series [1] was found to be 57.1 ± 3.2 nM; at human 5-HT1A receptor [2], 2450 ± 24 nM.

As to `O=C1CC(c2c[nH]c3ccccc23)C(=O)N1CCN1CC=C(c2c[nH]c3ncccc23)CC1` (stereo not drawn) [Compound 6, 1-(2-(4-(1H-Pyrrolo[2,3-b]pyridin-3-yl)-3,6-dihydropyridin-1(2H)-yl)ethyl)-3-(1H-indol-3-yl)pyrrolidine-2,5-dione], the “hNET screening procedure, displacement %” value in series [3] came to 37% ^a. Further, the Ki turned out to be 245 ± 18 nM in series [1] (setting [7]), 916 ± 40.5 nM in series [4] and 367 ± 55.2 nM at α1-adrenoceptor. The “Selectivity Ratio hDAT/hSERT” value in series [4] amounted to 3.7.

`COc1ccc2[nH]cc(C3CC(=O)N(CCCCN4CC=C(c5c[nH]c6ncccc56)CC4)C3=O)c2c1` (stereo not drawn) [Compound 7, 1-(4-(4-(1H-Pyrrolo[2,3-b]pyridin-3-yl)-3,6-dihydropyridin-1(2H)-yl)butyl)-3-(5-methoxy-1H-indol-3-yl)pyrrolidine-2,5-dione]: the Ki in series [1] (setting [7]) worked out at 58.4 ± 4 nM; at human 5-HT1A receptor [2] it was 824 ± 23.2 nM.

`COc1ccc2[nH]cc(C3CC(=O)N(CCN4CC=C(c5c[nH]c6ncccc56)CC4)C3=O)c2c1` (stereo not drawn) [Compound 9, 1-(2-(4-(1H-Pyrrolo[2,3-b]pyridin-3-yl)-3,6-dihydropyridin-1(2H)-yl)ethyl)-3-(5-methoxy-1H-indol-3-yl)pyrrolidine-2,5-dione]: the “hNET screening procedure, displacement %” value in series [3] is on record as 41% ^a. Moreover, the Ki amounted to 92 ± 8 nM in series [1] (setting [7]), 335 ± 14.8 nM in series [4] and 319 ± 10.2 nM on α1-adrenoceptor. Further, the “Selectivity Ratio hDAT/hSERT” value in series [4] stood at 3.6.

Turning to `O=C1CC(c2c[nH]c3ccc(F)cc23)C(=O)N1CCCCN1CC=C(c2c[nH]c3ncccc23)CC1` (stereo not drawn) [Compound 10, 1-(4-(4-(1H-Pyrrolo[2,3-b]pyridin-3-yl)-3,6-dihydropyridin-1(2H)-yl)butyl)-3-(5-fluoro-1H-indol-3-yl)pyrrolidine-2,5-dione], the Ki in series [1] (setting [7]) was found to be 77.6 ± 2.5 nM; at human 5-HT1A receptor [2], 128 ± 12 nM.

On to `O=C1CC(c2c[nH]c3ccc(F)cc23)C(=O)N1CCN1CC=C(c2c[nH]c3ncccc23)CC1` (stereo not drawn) [Compound 12, 1-(2-(4-(1H-Pyrrolo[2,3-b]pyridin-3-yl)-3,6-dihydropyridin-1(2H)-yl)ethyl)-3-(5-fluoro-1H-indol-3-yl)pyrrolidine-2,5-dione], for which, in series [3], the “hNET screening procedure, displacement %” value is recorded as 42% ^a. Also, the Ki in series [1] (setting [7]) is 252 ± 24 nM; in series [4] it was 229 ± 21.4 nM; on α1-adrenoceptor, 456 ± 6 nM. In addition, the “Selectivity Ratio hDAT/hSERT” value in series [4] was 0.9.

For the compound `O=C1CC(c2c[nH]c3ccccc23)C(=O)N1CCCCN1CC=C(c2c[nH]c3ccccc23)CC1` (stereo not drawn) [Compound 13], the Ki was 12.5 ± 1.7 nM on human 5-HT1A receptor [5] and 11.3 ± 0.6 nM in series [6].

For the compound `O=C1CC(c2c[nH]c3ccccc23)C(=O)N1CCCN1CC=C(c2c[nH]c3ccccc23)CC1` (stereo not drawn) [Compound 14], the inhibition constant (Ki) was 161 ± 17.5 nM on human 5-HT1A receptor [5] and 4 ± 0.1 nM in series [6].

On to `O=C1CC(c2c[nH]c3ccccc23)C(=O)N1CCN1CC=C(c2c[nH]c3ccccc23)CC1` (stereo not drawn) [Compound 15], for which the Ki was 250 ± 6.8 nM on human 5-HT1A receptor [5] and 33.8 ± 3.2 nM in series [6].

Turning to `COc1ccc2[nH]cc(C3CC(=O)N(CCCCN4CC=C(c5c[nH]c6ccccc56)CC4)C3=O)c2c1` (stereo not drawn) [Compound 16], the Ki on human 5-HT1A receptor [5] is 30.4 ± 1.8 nM; in series [6] it was 2.6 ± 0.3 nM.

Take `COc1ccc2[nH]cc(C3CC(=O)N(CCCN4CC=C(c5c[nH]c6ccccc56)CC4)C3=O)c2c1` (stereo not drawn) [Compound 17]: the inhibition constant Ki was 221 ± 11.5 nM on human 5-HT1A receptor [5] and 782 ± 54 nM in series [6].

As for `COc1ccc2[nH]cc(C3CC(=O)N(CCN4CC=C(c5c[nH]c6ccccc56)CC4)C3=O)c2c1` (stereo not drawn) [Compound 18], the inhibition constant Ki on human 5-HT1A receptor [5] was 348 ± 12.1 nM; in series [6] it was 14.7 ± 1.5 nM.

On to `O=C1CC(c2c[nH]c3ccc(F)cc23)C(=O)N1CCCCN1CC=C(c2c[nH]c3ccccc23)CC1` (stereo not drawn) [Compound 19], for which the Ki was 48.2 ± 2.9 nM at human 5-HT1A receptor [5] and 33.3 ± 2.9 nM in series [6].

Regarding `Cc1ccc(N(CC2=NCCN2)c2cccc(O)c2)cc1` [phentolamine, reference compound], the Ki at α1-adrenoceptor turned out to be 11 ± 0.7 nM.

Source of the values: article PMC11508649 (International Journal of Molecular Sciences, 2024).
